Tests used:
Type in all cases: cell-based, human
[1] = test system: HeLa Kyoto cells; assay: H3S10ph immuno-labelling of synchronised HeLa Kyoto cells; settings: thymidine double block, BI2536 at 5 μM
Experimental: HeLa Kyoto cells were synchronised in S phase by a double thymidine block (Sigma). Briefly, a final concentration of 3 mM thymidine was added to the culture medium for 18 h, followed by release into fresh culture medium for 9 h and a second block with 3 mM thymidine for 17 h. […] Cell synchronisation was confirmed by flow cytometry. For immunofluorescence, HeLa Kyoto cells were grown on coverslips (12 mm #1 VWR International) and synchronised as described above. The synchronised cells were rinsed in PBS, fixed in 1% PFA, permeabilised with 0.1% Triton X-100/0.02% SDS, and blocked in 2% BSA. After the blocking step, phosphohistone H3 (H3S10ph) antibody was applied for 1 h at a dilution of 1/500 and after three washes with PBS, Alexa Fluor 594 antibody was added at a dilution of 1/300 for 1 h. Coverslips were washed three times in PBS and mounted with Vectashield non-fade DAPI (Vector Laboratories).

[2] = test system: T47D cells; assay: H3S10ph immuno-staining, mitotic phase distribution in T47D cells; set-up: reduction of the proportion of mitotic T47D cells in prophase/prometaphase: dose or concentration left out as unconfirmed
Experimental: (§1) To prepare cell monolayers, 0.5×10^6 cells were cytospun onto glass slides at 800×g for 5 min using a Cytospin 4 cytocentrifuge (Thermo Scientific), air dried and fixed in 4% neutral buffered formalin overnight.
(§2) Section deparaffinisation, antigen retrieval and immuno-staining were performed using the Bond III Autostainer and Bond Polymer Refine Detection kit (Leica) according to the manufacturer's instructions. Heat-mediated antigen retrieval and proteolytic digestion were used for H3S10ph and PAPPA antigens, respectively. Primary antibodies were applied for 40 min at the following dilutions: PAPP-A at 1/200; H3S10ph at 1/4000. Cytospin preparations were immuno-stained using the same protocol without the deparaffinisation step. Incubation without primary antibody was used as a negative control and sections of tonsil and placenta were used as positive controls for H3S10ph and PAPPA antibodies, respectively.
Two consecutive serial sections from each tissue sample and two cytospin preparations for each cell line were immuno-stained for H3S10ph for analysis of mitotic phase distribution. […]
PAPPA and ZMPSTE24 (control) are zinc-dependent metalloproteinases of the metzincin superfamily. […] PAPPA and ZMPSTE24 expression levels were determined by qRT-PCR and western blot. […]

[3] = test system: BT549 cells; assay: H3S10ph immuno-labelling, mitotic phase distribution in BT549 cells; settings: BT549 cytospin preparations
Experimental: as §1
as §2, with “Incubation without primary antibody was used as a negative control and sections of tonsil and placenta were used as positive controls for H3S10ph and PAPPA antibodies, respectively.” left out
PAPPA was silenced by RNAi with a specific RNA duplex targeting PAPPA mRNA (Ambion s10042; sense 5′-GAGCCUACUUGGAUGUUAAtt-3′ (SEQ ID NO. 37) and antisense 5′-UUAACAUCCAAGUAGGCUCtg-3′ (SEQ ID NO. 38) or, alternatively, a pool of duplexes (ON-TARGETpIus SMARTpooI, Dharmacon). Non-targeting siRNA (Stealth RNAi Negative Control Med GC, Invitrogen) was used as negative control. All transfections were performed with Lipofectamine 2000 (Invitrogen). PAPPA siRNA at 100 nM final concentration was used to achieve efficient knock-down. Cells were harvested at the indicated time points post-transfection. Knock-down efficiency was assessed by qRT-PCR and/or Western blot. […]

## CC[C@@H]1C(=O)N(C)c2cnc(Nc3ccc(C(=O)NC4CCN(C)CC4)cc3OC)nc2N1C1CCCC1 [BI2536]
[1]
  phosphohistone H3 (H3S10ph) detection in synchronised cells: enrichment of prometaphase cells

## Cc1cn([C@H]2C[C@H](O)[C@@H](CO)O2)c(=O)[nH]c1=O [thymidine]
[1]
  phosphohistone H3 (H3S10ph) detection in synchronised cells: not detected

## IGF-1: recombinant Human IGF-1 (IMR-233, Imgenex); IGF receptor agonist
[2]; T47D cells (PAPPA promoter methylated)
  effect on mitotic delay phenotype in T47D cells: reverses the mitotic delay phenotype
[2]; recombinant human IGF-1, harvested 24 h later, cells serum starved 48 h, versus control
  reduction of the proportion of mitotic T47D cells in prophase/prometaphase: approximately one half

## siRNA-42: single RNA duplex targeting PAPPA mRNA, Ambion s10042 (SEQ ID NO. 37 and 38) (chain 1 GAGCCUACUUGGAUGUUAA; chain 2 UUAACAUCCAAGUAGGCUC; listed as RNA, chemistry not given here)
[3]
  mitotic phase phenotype in BT549 cells: prophase/prometaphase delay phenotype
